Values joined by “and” are separate entries in the source; they are usually repeats but may differ in a detail not shown here. Identical values can stand only once. A value given as a limit tells only on which side of the number the result lay.

A short description of data set [1]: Metabolite identification/screening by LC-MS/MS (precursor ion scans, LC-MRM-MS) in rats. In kind it is in vivo, rat. Conditions: for detection as TPPU metabolite: LC-MS/MS, in vivo in rats (blood, urine), Table 1 footnote: in vitro and in vivo; for share of TPPU metabolism, if formed: not detected by the LC-MRM-MS method; for concentration in rat urine, if formed (below method detection limit): rat urine after oral TPPU, LC-MRM-MS, no peak found, LOD. As to the method:
Healthy male rats (Sprague Dawley, n = 4) were housed in temperature-controlled housing with ad libitum standard chow and drinking water. […]. Both blood and urine samples were collected. Blood samples (10 μL) at time points of 0 (before dosing), 0.25, 0.5, 1, 2, 4, 8, 12, 24, 48, and 72 h post dose were collected from the tail vein. Collected blood samples were transferred to Eppendorf tubes containing 90 μL of EDTA solution (0.1% EDTA and 0.1% acetic acid) and were immediately shaken to avoid blood coagulation. The urine and feces samples were passively collected at the time points of 8, 12, 24, 48, and 72 h post dose. TAPU (10 μL) of 1 μM in methanol was added in each blood and urine sample as an internal standard solution. The blood sample extraction was performed with 200 μL ethyl acetate by liquid-liquid extraction. The representative urine samples were subjected to protein precipitation prior to analysis of TPPU and Phase I metabolites. Briefly, urine (10 μL) was treated with 50 μL acetonitrile. After vortex mixing and centrifugation, the supernatant was collected. The feces samples (50–100 mg) were extracted using 600 μL extraction solution (MeOH: EA = 1:1). The mixtures were kept at −20°C overnight to give efficient extraction of TPPU and its metabolites. On day 2, after vortex mixing and centrifugation, the supernatant was collected. The remaining residue was extracted an additional time with 300 μL extraction solution, and the supernatant was combined after centrifugation. The collected supernatants were dried using a speed vacuum concentrator and reconstituted in 50 μL of 100 nM CUDA solution in methanol. In addition, urine (10 μL) was diluted with water (50 μL) and then subjected to analysis of glucuronide or sulfate conjugates.
(§1) LC-MS/MS analysis was conducted on an Agilent SL 1200 series LC system (Agilent, Palo Alto, CA) connected to a 4,000 Qtrap mass spectrometer (Applied Biosystems Instrument Corporation, Foster City, CA) with Turbo V ion source. Liquid chromatography was performed on a Kinetex® C18 column (100 × 2.1 mm, 1.7 μm). Three μL solution was injected onto the column held at 45°C for analysis. Mobile phase A and B were water with 0.1% acetic acid and acetonitrile with 0.1% acetic acid, respectively. The LC flow rate was 300 μL/min.
(§2) The mass spectrometer was operated in both negative and positive modes. Three different scan types were employed to perform mass spectrometry analysis, including product ion scan, precursor ion scan (optimized parameters in Table S4) and MRM scan (optimized parameters in Table S5).
. The other minor fragment ion at m/z 85 appeared at higher-energy collision induced dissociation (CID, 38 eV) and is derived from the C-O bond cleavage on the trifluoromethoxyphenyl group (Figure 1B). To support the structural identification of TPPU metabolites, six putative metabolites, M1–M4, α-keto amide metabolite and 4-(trifluoromethoxy)aniline were synthesized and analyzed by LC-MS/MS (Figure 2 and Table 2). In the negative ion mode, the fragment ion at m/z 176 was generated by all five synthetic putative metabolites (M1–M4 and α-keto amide metabolite). Apparently, this fragment ion (m/z 176) is a characteristic fragment that is generated by metabolites containing the 4-(trifluoromethoxy)aniline moiety. Therefore, precursor ion scan for m/z 176 can be used to screen for this kind of TPPU metabolite. The method limit of detection (LOD) is 2 ng/mL. In addition, the fragment ion at m/z 85 (from the trifluoro-methoxy) was also generated by these synthetic standards. […]. Therefore, precursor ion scan for m/z 85 can unveil a large number of possible TPPU metabolites, such as the ones-formed from amide hydrolysis and oxidation at aliphatic groups, aromatic ring, and nitrogen center. […]. […]

Another data set addresses T1, recombinant human sEH (Homo sapiens, UniProt P34913).
T1 sequence (P34913 1-555): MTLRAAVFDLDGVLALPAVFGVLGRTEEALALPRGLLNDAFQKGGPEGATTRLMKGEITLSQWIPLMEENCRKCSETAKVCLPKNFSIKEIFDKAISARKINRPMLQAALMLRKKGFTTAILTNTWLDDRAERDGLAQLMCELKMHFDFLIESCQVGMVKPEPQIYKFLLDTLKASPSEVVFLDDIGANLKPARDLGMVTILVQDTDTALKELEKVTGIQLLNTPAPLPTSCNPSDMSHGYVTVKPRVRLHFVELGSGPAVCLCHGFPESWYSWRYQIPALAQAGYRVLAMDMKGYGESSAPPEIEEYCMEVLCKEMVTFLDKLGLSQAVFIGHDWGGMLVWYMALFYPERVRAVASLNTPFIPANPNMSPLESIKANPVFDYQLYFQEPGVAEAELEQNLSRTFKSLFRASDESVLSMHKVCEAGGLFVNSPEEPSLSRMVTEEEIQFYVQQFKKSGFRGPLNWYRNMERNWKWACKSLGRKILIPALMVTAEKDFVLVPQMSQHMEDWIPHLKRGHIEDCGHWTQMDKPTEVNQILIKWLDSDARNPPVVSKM
Put plainly: sEH inhibition potency, CMNPC fluorescent assay. The data set is classed as biochemical. Conditions: for IC50: CMNPC fluorescent assay, recombinant human sEH 1 nM, 30°C, average of three replicates, read-out: HsEH IC50. Here is the method: Briefly, recombinant human sEH [1 nM in sodium phosphate buffer (0.1 M, pH = 7.4, 0.1 mg/mL BSA)] was incubated with each analyte (0.1 < [I]final < 10,000 nM) at 30°C for 5 min. Then, the reaction was started with the addition to CMNPC ([S]final = 5 μM). The reaction was monitored kinetically for 10 min at 30°C. The formation of the fluorescent product 6-methoxynaphthaldehyde (λexcitation = 330 nm, λemission = 465 nm, 30°C) was measured every 30 s. IC50 values were determined by regression of the remaining activity in function of the inhibitor concentrations. Assays were run in triplicate and IC50 values are the averages of three replicates.

Data set [2] is described as follows: Urine levels of TPPU and metabolites after single oral dose in rats. The settings on record: male, Sprague Dawley, rat, single oral dose 10 mg/kg TPPU, n = 3; for concentration at 8 h: 8h post dose; for concentration at 12 h: 12h post dose; for concentration at 24 h: 24h post dose; for concentration at 48 h: 48h post dose; for concentration at 72 h: 72h post dose. In kind it is in vivo.

A short description of data set [3]: Blood pharmacokinetics of TPPU and its metabolites after single oral dose in rats. The settings on record: for half-life: rat, po, 10 mg/kg, n = 4, read-out: T1/2 (half-life) (converted); for share of the total TPPU-related exposure in blood: single oral dose of TPPU, over 72 h. In kind it is in vivo. As to the method: Healthy male rats (Sprague Dawley, n = 4) were housed in temperature-controlled housing with ad libitum standard chow and drinking water. Each rat received TPPU (dissolved in 0.5 mL PEG400) at a dose of 10 mg/kg by oral gavage in order to generate significant amounts of metabolites while corresponding to previous efficacious concentration doses. Both blood and urine samples were collected. Blood samples (10 μL) at time points of 0 (before dosing), 0.25, 0.5, 1, 2, 4, 8, 12, 24, 48, and 72 h post dose were collected from the tail vein. Collected blood samples were transferred to Eppendorf tubes containing 90 μL of EDTA solution (0.1% EDTA and 0.1% acetic acid) and were immediately shaken to avoid blood coagulation. The urine and feces samples were passively collected at the time points of 8, 12, 24, 48, and 72 h post dose. TAPU (10 μL) of 1 μM in methanol was added in each blood and urine sample as an internal standard solution. The blood sample extraction was performed with 200 μL ethyl acetate by liquid-liquid extraction. The representative urine samples were subjected to protein precipitation prior to analysis of TPPU and Phase I metabolites. Briefly, urine (10 μL) was treated with 50 μL acetonitrile. After vortex mixing and centrifugation, the supernatant was collected. The feces samples (50–100 mg) were extracted using 600 μL extraction solution (MeOH: EA = 1:1). The mixtures were kept at −20°C overnight to give efficient extraction of TPPU and its metabolites. On day 2, after vortex mixing and centrifugation, the supernatant was collected. The remaining residue was extracted an additional time with 300 μL extraction solution, and the supernatant was combined after centrifugation. The collected supernatants were dried using a speed vacuum concentrator and reconstituted in 50 μL of 100 nM CUDA solution in methanol. In addition, urine (10 μL) was diluted with water (50 μL) and then subjected to analysis of glucuronide or sulfate conjugates.
as §1, §2

Data set [4] can be described thus: Feces levels of TPPU and metabolites after single oral dose in rats. In kind it is in vivo. Conditions: rat, single oral dose 10 mg/kg TPPU; for concentration at 8 h: 8h post dose; for concentration at 8 h / concentration at 12 h / concentration at 24 h / concentration at 48 h / concentration at 72 h: n = 3; for concentration at 12 h: 12h post dose; for concentration at 24 h: 24h post dose; for concentration at 48 h: 48h post dose; for concentration at 72 h: 72h post dose.

A short description of data set [5]: In vitro metabolism of TPPU in liver S9 fractions. The settings on record: for formation of metabolite in liver S9 fractions: with NADPH regeneration system, rat, mouse, dog, monkey, human, 2 h. The data set is classed as in vitro ADME, human, monkey, dog, rat, mouse. Here is the method:
The in vitro study of TPPU metabolism was conducted following previous methods as described (Watanabe and Hammock, [2001]). Briefly, 1 μL of TPPU (1 mM in DMSO; [TPPU]final = 10 μM) was mixed with 94 μL of diluted liver S9 fractions (final, 0.05 mg protein/mL) from human, monkey, dog, rat, and mouse and incubations were conducted in a 10 mL glass vial. After 5 min preincubation at 37°C, the reaction was initiated by adding 5 μL of NADPH regeneration solution. The NADPH regeneration solution was prepared by mixing 50 μL of NADP^+ (100 mM), 50 μL of G6P (500 mM), 50 μL of G6PDH (100 Unit/mL), and 100 μL of sodium phosphate buffer. Incubation without NADPH regeneration solution was used as control. Reactions were kept for 2 h and terminated by addition of 100 μL of ice-cold methanol containing CUDA (200 nM) as an internal standard. The mixture was followed by vigorous mixing for 2 min and centrifuging at 10,000^*g for 10 min. Each supernatant was transferred to an HPLC vial and kept under 4°C until LC-MS analysis.
as §1

The mark [6] stands for this setting: male, Sprague Dawley, whole blood, oral gavage 10 mg/kg.

As to 4-(trifluoromethoxy)aniline, in data set [1], the “detection as TPPU metabolite” value is recorded as “not detectable”; the “share of TPPU metabolism, if formed” value was less than 0.01%; the “concentration in rat urine, if formed (below method detection limit)” value was less than 0.1 ng/mL.
In general, IC50 refers to the point on the concentration scale where inhibition reaches its midpoint. As for `O=C(Nc1ccc(OC(F)(F)F)cc1)NC1CCNCC1` [Compound M3, 1-(piperidin-4-yl)-3-(4-(trifluoromethoxy)phenyl)urea], the half-inhibitory concentration (IC50) at recombinant human sEH was 0.0835 µM and 0.083 µM. Moreover, on recombinant human sEH (ratio of IC50 values, versus TPPU), the “fold lower potency than TPPU toward human sEH” value was determined as 80 fold. In addition, in data set [2], the concentration at 8 h was 2.5 ng/mL, the concentration at 12 h was 2.9 ng/mL, the concentration at 24 h is 1 ng/mL and the concentration at 48 h was 1.5 ng/mL. For the same molecule, the concentration at 72 h in data set [2] was found to be 44 ± 21 ng/mL. Further, the half-life in data set [3] (setting [6]) is 14 ± 2.7 h. Moreover, the “share of the total TPPU-related exposure in blood” value in data set [3] (rat blood) is on record as less than 0.4%. In addition, in data set [4] (male, Sprague Dawley, feces), the concentration at 8 h came out at 3.6 ng/mL, the concentration at 12 h amounted to 8.3 ng/mL, the concentration at 24 h was 1.1 ng/mL and the concentration at 48 h was 3.4 ng/mL. Also, in data set [4] (male, Sprague Dawley, feces), the concentration at 72 h worked out at 1.7 ng/mL. For the same molecule, in data set [5], the “formation of metabolite in liver S9 fractions” value is “found in all species tested”. Further, the “formation of metabolite in liver S9 fractions in the absence of a NADPH generation system” value in data set [5] (without NADPH, liver S9 fractions (Figure S1: human)) is “could still be produced”.
On to `O=C(O)CC(=O)N1CCC(NC(=O)Nc2ccc(OC(F)(F)F)cc2)CC1` [Compound M4, 3-oxo-3-(4-(3-(4-(trifluoromethoxy)phenyl)ureido)piperidin-1-yl)propanoic acid], for which the half-maximal inhibitory concentration (IC50) on recombinant human sEH was found to be 0.158 ± 0.01 µM. Moreover, in data set [2], the concentration at 8 h is 1 ng/mL, the concentration at 12 h turned out to be 1.1 ng/mL, the concentration at 24 h was determined as 2.4 ng/mL and the concentration at 48 h was 1.2 ng/mL. The concentration at 72 h in data set [2] is 1.7 ng/mL. Moreover, in data set [3] (setting [6]), the half-life was 17 ± 4.7 h. Further, in data set [3] (male, Sprague Dawley, whole blood, rat blood, oral gavage 10 mg/kg, n = 4, read-out: Cmax (maximum blood concentration)), the Cmax amounted to 0.053 ± 0.028 µM. In addition, the “share of the total TPPU-related exposure in blood” value in data set [3] (rat blood) was less than 0.4%. Besides, in data set [4] (male, Sprague Dawley, feces), the concentration at 8 h is 3 ng/mL, the concentration at 12 h stood at 1.2 ng/mL, the concentration at 24 h stood at 2.2 ng/mL and the concentration at 48 h is 6.4 ng/mL. Also, in data set [4] (male, Sprague Dawley, feces), the concentration at 72 h was 2.1 ng/mL and the Cmax was found to be 22000 ng/mL. Besides, the “time of Cmax in feces” value in data set [4] amounted to 24 h. Besides, in data set [5], the “formation of metabolite in liver S9 fractions” value is on record as “not detected”.
With `CC(=O)C(=O)N1CCC(NC(=O)Nc2ccc(OC(F)(F)F)cc2)CC1` [α-Keto amide, 1-(1-(2-oxopropanoyl)piperidin-4-yl)-3-(4-(trifluoromethoxy)phenyl)urea], in data set [1], the “detection as TPPU metabolite” value is on record as “not detectable”; the “share of TPPU metabolism, if formed” value was less than 0.01%; the “concentration in rat urine, if formed (below method detection limit)” value was less than 0.5 ng/mL.

The record behind these values is article PMC6520522, “In vitro and in vivo Metabolism of a Potent Inhibitor of Soluble Epoxide Hydrolase, 1-(1-Propionylpiperidin-4-yl)-3-(4-(trifluoromethoxy)phenyl)urea” (Frontiers in Pharmacology, 2019).
